From patent publication US9393204B2, “Methods and compositions employing bicifadine for treating disability or functional impairment associated with acute pain, chronic pain, or neuropathic disorders” (EBI Life Sciences, Inc., priority 2002, dated 2016)
Entries after “also recorded” stand apart in the source; their conditions may differ. Counter-ions that a name gives are not always drawn.

Columns and labels:
[1] = tested on: post-operative dental pain; experiment: Analgesic efficacy of bicifadine SR tablets in post-operative dental pain study; assay type: in vivo, human
Protocol: These conclusions are further substantiated by the use of rescue medication by subjects in the Stem et al. acute dental pain studies. Table 5 below summarizes information on the use of rescue medication for patients who took rescue medication among the various treatment groups in the clinical trial reported by Stern et al. (id.) A nonparametric analysis (Median Test) was conducted to evaluate the median latency to rescue medication.
Survival analysis (Kaplan-Meier method, 95% confidence) was performed to compare the treatment groups with regard to time-to-rescue medication. […] The analysis yielded a statistically significant difference among the treatment groups (Log-Rank test, Chi-square=26.9, df=4, P=0.0001).
(§1) Healthy adult male and female human subjects who underwent surgical extraction of two or more impacted third molars were enrolled in the study. Following cessation of the local anesthetic effect and onset of pain of at least 40 mm intensity on the 100 mm VAS, patients were randomized to into 1 of the 5 treatment arms (n˜108 per arm) and remained in the clinic for the subsequent 12 hours of the study. The study subjects were randomized to receive either a single dose of: 200 mg, 400 mg or 600 mg bicifadine SR tablets, Tramadol 100 mg, or Placebo. Analgesia ratings were obtained over a 12 h post-dosing period. Rescue medication (acetaminophen) was available, but no analgesia measures were taken after the use of rescue medication by a given patient. A subset of 150 patients provided blood samples at 0.5 hr and hourly intervals following dosing with study medication for the purpose of determining bicifadine levels (n=90).
The main efficacy endpoints utilized in the overall study (n˜540) were the individual assessment of Pain Severity and Pain Relief scores at a given time point; the derived scores (PID, PRID, SPID, SPRID, TOTPAR), and the global improvement. The last observation carried forward (LOCF) approach was used to estimate change over time for those patients who used rescue medication. For the full study efficacy evaluations, one-way analysis of covariance with baseline pain severity as a covariate was applied. The global tests which included all treatment arms were followed by post-hoc comparisons of the individual treatment arms vs. placebo.
The relationship between mean pain relief ratings (PRR) and mean plasma bicifadine levels was determined at three exemplary plasma level ranges: between 0-500 ng/ml, 500-1000 ng/ml, and >1000 ng/ml, respectively. A clear positive relationship was observed across 3 ranges of bicifadine levels. In particular, bicifadine plasma concentrations in the >1000 ng/ml range were associated with a PR score approximately 3 times as high as plasma concentrations in the 0-500 ng/ml range (p<0.001, Hierarchical Linear Model analysis).
The probability of treatment response as a function of bicifadine blood concentration levels was also determined. Association between the probability of treatment response and bicifadine blood concentration levels was investigated with the widely known Generalized Estimating Equation (GEE) approach. For the purpose of the GEE analyses described here, bicifadine blood concentration was treated as a continuous independent (predictor) variable. Treatment (analgesic) response served as a dichotomous (yes, no) dependent variable in the GEE model. In particular, treatment response for each individual patient for each of the time points was defined as a Pain Relief Rating of 3 or more (range 0-4).

[2] = Pharmacokinetics of bicifadine SR tablets in acute dental pain study; assay type: in vivo, human; conditions: 90 patients
Protocol: as §1
Plasma time course profiles were determined in a subset of 30 subjects (15 male/15 female) from each treatment group.

[3] = tested on: chronic low back pain (CLBP); experiment: Chronic low back pain (CLBP) study, bi-daily dosing; assay type: in vivo, human
Protocol: The present study evaluated the therapeutic efficacy of a reduced dosing regimen employing bicifadine in a bi-daily (BID) dosing protocol to treat chronic low back pain (CLBP). More than 800 study subjects were recruited in this study, and a subset of these subjects was administered 400 mg of a sustained release oral dosage form (formula M; example 15) of bicifadine BID to evaluate the long-term analgesic efficacy of bicifadine for treating CLBP. […] The following outcome measures were assessed in the study:
Inclusion criteria for study subjects, as selected for other studies herein, included the following: Subjects were at least 18 years of age. If subject was female and of childbearing potential, the subject had to have a negative serum pregnancy test during the screening period. Subjects were required to have […] during the screening period.
Other exclusionary criteria in this study included: Low back pain due to acute fracture, infection, severe osteoporosis, malignancy, marked scoliosis, or severe congenital malformation such as spina bifida; Receipt of an epidural injection of corticosteroid in the lower back within 1 month prior to the baseline visit; Use of any antidepressant for pain or sleep (including SSRIs or SNRIs), anti-epileptic, or muscle relaxant, or receipt of transcutaneous electrical nerve stimulation, chiropractic adjustment, or acupuncture within 3 weeks prior to the baseline visit; Use of any antidepressant (including SSRIs or SNRIs) for depression within 3 months prior to the baseline visit; Use of any opioid analgesic or benzodiazepine (or other sedative-hypnotic) within 2 weeks prior to the baseline visit; Use of any NSAID (except aspirin<81 mg per day or <325 mg every other day for cardiac prophylaxis and except ibuprofen) or any non-opioid analgesic (except acetaminophen) within 1 week, or acetaminophen or ibuprofen within 60 hours, prior to the baseline visit; Active malignancy of any type or history of a malignancy within 5 years prior to the first dose of study medication (patients with treated localized basal or squamous cell carcinoma of the skin within 5 years are permitted); Active GI disease (including any GI surgery that, in the Investigator's opinion, would interfere with the absorption of the study medication), or a chronic or acute renal or hepatic disorder; Mental instability, known substance abuse, history of clinically significant depression or alcoholism, or incapacity of being compliant with the requirements of the study; Any clinically significant cardiovascular, renal, endocrine, hepatic, immunologic, respiratory, neurologic, gastrointestinal, psychiatric, or hematologic disease, or any underlying serious medical condition that would preclude patient's participation in the study; and, other standard, relevant exclusion criteria.
Patients who qualified for enrollment into the study completed the PSR test, Roland-Morris Disability Questionnaire, Short Form McGill Pain Questionnaire (SF-MPQ) and the SF-36 quality of life survey at the baseline visit and at various time points throughout the study.
Study subjects were randomized on a 25:6 basis to receive either bicifadine 400 mg BID or SOC treatment, respectively. SOC treatment was provided as any appropriate pharmacological analgesic treatment selected by the investigator based on the subjects' baseline and ongoing presentation. Subjects were permitted to reduce the dose for tolerability reasons, first to bicifadine 300 mg BID, and then, if necessary, to bicifadine 200 mg BID.
Summary statistics, including observed means and standard deviations along with mean change from baseline were summarized by visit for each outcome measure. Incidence of discontinuation due to lack of efficacy and its 95% confidence interval were likewise calculated. The median and its 95% confidence interval and a Kaplan-Meier plot were provided for Time to Discontinuation due to lack of efficacy and other reasons. […]

neuropathic pain = experiment: Spinal nerve ligation (Chung) model; conditions: in vivo
acute pain = experiment: Acute pain studies (acute dental pain and bunionectomy pain); assay type: in vivo, human; conditions: unit doses of about 200 mg, 400 mg or 600 mg
acute inflammatory pain = conditions: animal model of acute inflammatory pain; cited from earlier work
[4] = tested on: acute, nociceptive pain following dental surgery; conditions: cited from earlier work
[5] = patients with low back pain and radiating pain

## COc1cccc(C2(O)CCCCC2CN(C)C)c1 (centres unmarked) [tramadol, reference compound]
[1]; 100 mg, P=0.0001
  use of rescue medication versus placebo (time-to-rescue, Log-Rank): significantly less likely to use rescue medication

## Cc1ccc(C23CNCC2C3)cc1 (racemic) [Bicifadine HCl, (±)-1-(4-methylphenyl)-3-azabicyclo[3.1.0]hexane hydrochloride]
[2]
  relationship between bicifadine dose and AUC: clear dose proportional relationship
[1]; 200 mg single dose
  SPRID-6 and other derived analgesia scores versus placebo: better than placebo on some measures
[1]; 400 mg single dose
  SPRID-6 and other derived analgesia scores versus placebo: statistically superior to placebo
[1]; 600 mg single dose
  SPRID-6 and other derived analgesia scores versus placebo: statistically superior to placebo
[1]; acute dental pain
  drug levels associated with significant analgesic efficacy: 500 to 1000 ng/mL
  minimally effective dose: 200 mg
  plasma bicifadine levels associated with the greatest pain relief: > 1000 ng/mL
  plasma drug levels not associated with significant analgesic effects: ≤ 500 ng/mL
[1]; for an increase of 500 ng/ml in bicifadine blood levels, GEE, p=0.006
  Odds Ratio of Response (Pain Relief Rating of 3 or more): 1.59
[1]; p<0.001, Hierarchical Linear Model
  PR score at plasma concentrations >1000 ng/ml relative to 0-500 ng/ml range: approximately 3 times
[3]; BID dosing, 4.5 month period, versus SOC
  therapeutic efficacy from pain relief data (VAS): comparable to that of standard of care (SOC) treatment
[3]; BID dosing, versus SOC
  improved functional/activity results: comparable to those observed among SOC-treated subjects
[3]; baseline RDQ score greater than 17
  VAS pain scores compared to placebo: significantly reduced
[3]; baseline RDQ score greater than 17, hydrochloride
  subjects with at least a 50% reduction in VAS scores, relative to placebo: at least three times as many; also recorded: roughly three times the percentage
[3]; baseline RDQ>17, 400-800 mg/day
  percentage of subjects with 50% or greater reduction in RDQ scores, relative to placebo (less than 15%): roughly twice this percentage
[3]; baseline RDQ>17, 400-800 mg/day, hydrochloride
  disability scores on the RDQ versus placebo: significant activity for reversing disabilities and enhancing functional/activity performance; also recorded: significantly decreased
[3]; [5]
  improvement in VAS pain score compared to placebo: 11 mm
  responsiveness to treatment versus patients with only localized back pain: two times more responsive
Neuropathic pain
  efficacy in the spinal nerve ligation (Chung) model: effective
Acute pain
  period of analgesic efficacy for effectively treating acute pain: up to 6 hours
Acute inflammatory pain
  activity in the Randall-Selitto test: potent and active
[4]
  efficacy relative to codeine and tramadol: as effective as codeine and tramadol
